Source: patent US8445005B2, “Antiwrinkle agent, lipolysis promoter, external composition for skin and food and beverage composition” (Kao Corporation, priority 2004, dated 2013)

What was measured:
[1] = tested on: Mouse 3T3-L1 cells; test: Lipolysis promoting effect: glycerol release from mature adipocytes; format: cell-based; details: test concentration 0.10% by mass; 90 minutes; norepinephrine 3×10^−8 mol/L; control = 100
Experimental: Mouse 3T3-L1 cells purchased from Dainippon Pharmaceutical Co., Ltd. were cultured in a 24-well culture plate according to the method of […], et al. ([…]. et al., Biochim. Biophys. Acta., 1581: 36-48 (2002)) at 37° C. in a 5% (v/v) CO2 atmosphere, and these cells were used in the test as mature adipocytes. Test media were prepared by adding test samples at predetermined concentrations to DMEM medium containing bovine serum albumin and norepinephrine (final concentration: 3×10^-8 mol/L). The said mature adipocytes were cultured in the test media for 90 minutes to be reacted with the test samples. Following the reaction, the glycerol released into the media was quantified by […] using the F Kit Glycerol (Roche). The lipolysis promotion rate was calculated according to the equation below based on the quantified glycerol values to serve as an indicator of lipolysis promoting effect: Lipolysis promotion rate(%)=[A/B]×100 (wherein A represents the amount of glycerol with addition of test sample, and B represents the amount of glycerol of a control (without addition of test sample)). (Test Results) […] Zingerone and caffeine were used as comparative controls.

[2] = tested on: photoaged skin; test: Wrinkle ameliorative effect: wrinkle score in photo-aged hairless mice; format: in vivo; details: Results 1; 1.0% sample in 50% aqueous ethanol, 0.1 ml once a day, five times a week on dorsal skin; score 0-3; base only 2.65 ± 0.08; listed as Example 2
Experimental: Samples containing 1.0% each of the guinea ginger extract, paradol or acetylated guinea ginger extract obtained in Production Examples 1 to 3 were prepared, using a 50% aqueous ethanol solution for the base (Example 1, 2 or 3, respectively), and wrinkle ameliorative effects on photoaged skin were investigated using the test method described below. Hairless mice, 10 weeks old at the start of the test, were used in groups of 10 animals each. Photo-aging was induced by irradiating skin with UVA and UVB once a day, five times a week for eight weeks. The irradiated doses were 20, 25 and 30 J/cm^2 for UVA and 20, 30 and 40 mJ/cm^2 for UVB. The doses were elevated every week, and the skin was irradiated at the maximum doses after the third week. Wrinkle ameliorative effect was evaluated using a wrinkle score and a dermal collagen level. The wrinkle score was determined according to the method of Bissett, et al. (Photochem. Photobiol., 46: 367-378, 1987). Namely, the size and depth of wrinkles were comprehensively evaluated macroscopically, and evaluated according to one of four levels consisting of a score of 3 for “large, deep wrinkles able to be confirmed”, 2 for “wrinkles able to be confirmed”, 1 for “wrinkles unable to be confirmed” and 0 for “normal skin texture observed”. […] Wrinkle scores were then determined following completion of the final application. […]

| Structure (SMILES) | Lipolysis promotion rate (%) (mean ± SE) [1] | Wrinkle Score (mean ± SE) [2] |
| --- | --- | --- |
| Cn1c(=O)c2c(ncn2C)n(C)c1=O [Caffeine] | 234.93 ± 11.23 | – |
| COc1cc(CCC(C)=O)ccc1O [Zingerone] | 191.85 ± 69.83 | – |
| CCCCCCCC(=O)CCc1ccc(O)c(OC)c1 [Paradol, 1-(4′-hydroxy-3′-methoxyphenyl)-3-decanone] | 554.68 ± 107.62 | 2.40 ± 0.23 |
